Data as given in patent US10770169B2, “Method of providing a treatment to a subject based on a dynamic pathway map” (THE REGENTS OF THE UNIVERSITY OF CALIFORNIA, priority 2010, dated 2020).
Where two headings read alike, the source gives them in different places.

Test system: panel of 55 breast cancer cell lines
Assay: Cell growth inhibition assay (Cell Titer Glo, 72 h, 9 doses; GI50, TGI, LC50)
Type: cell-based, human
Details: Homo sapiens, read-out: GI50 (converted)

COc1cc2ncnc(Nc3ccc(F)c(Cl)c3)c2cc1OCCCN1CCOCC1 [Iressa]
GI50 (600MPE cell line, censored GI50 values): 7240 nM | GI50 (AU565, AU565 cell line, censored GI50 values): 1070 nM | GI50 (BT-474, BT474 cell line, censored GI50 values): 724 nM | GI50 (BT-483, BT483 cell line, censored GI50 values): 6170 nM | GI50 (BT-549, BT549 cell line, censored GI50 values): 15100 nM | GI50 (HCC70, HCC70 cell line, censored GI50 values): 17400 nM | GI50 (HCC1143, HCC1143 cell line, censored GI50 values): 11700 nM | GI50 (HCC1395, HCC1395 cell line, censored GI50 values): 7080 nM | GI50 (HCC1419, HCC1419 cell line, censored GI50 values): 2750 nM | GI50 (HCC1428, HCC1428 cell line, censored GI50 values): 10700 nM | GI50 (HCC1500, HCC1500 cell line, censored GI50 values): 8130 nM | GI50 (HCC1806, HCC1806 cell line, censored GI50 values): 4680 nM | GI50 (HCC1937, HCC1937 cell line, censored GI50 values): 8320 nM | GI50 (HCC1954, HCC1954 cell line, censored GI50 values): 2040 nM | GI50 (HCC2185 cell line, censored GI50 values): 9330 nM | GI50 (MDA-MB-157, MDAMB157 cell line, censored GI50 values): 15100 nM | GI50 (MDA-MB-175-VII, MDAMB175VII cell line, censored GI50 values): 209 nM | GI50 (MDA-MB-361, MDAMB361 cell line, censored GI50 values): 6460 nM | GI50 (MDA-MB-415, MDAMB415 cell line, censored GI50 values): 7410 nM | GI50 (MDA-MB-453, MDAMB453 cell line, censored GI50 values): 7410 nM | GI50 (SK-BR-3, SKBR3 cell line, censored GI50 values): 2820 nM | GI50 (SUM52PE, SUM52PE cell line, censored GI50 values): 7940 nM | GI50 (SUM149PT, SUM149PT cell line, censored GI50 values): 2880 nM | GI50 (SUM185PE, SUM185PE cell line, censored GI50 values): 20900 nM | GI50 (SUM1315MO2, SUM1315MO2 cell line, censored GI50 values): 2950 nM | GI50 (SUM-159-PT, SUM159PT cell line, censored GI50 values): 8510 nM | GI50 (T47D, T47D cell line, censored GI50 values): 15800 nM | GI50 (UACC-893, UACC893 cell line, censored GI50 values): 1150 nM

Cc1ccc(C(=O)N(CCCN)[C@@H](c2nc3cc(Cl)ccc3c(=O)n2Cc2ccccc2)C(C)C)cc1 [Ispinesib]
GI50 (AU565, cell line AU565, censored GI50 values): 22.4 nM | GI50 (AU565, cell line AU565): 22.4 nM | GI50 (BT-20, cell line BT20, censored GI50 values): 17 nM | GI50 (BT-20, cell line BT20): 17 nM | GI50 (BT-474, cell line BT474, censored GI50 values): 51.3 nM | GI50 (BT-474, cell line BT474): 51.3 nM | GI50 (BT-483, cell line BT483, censored GI50 values): 0.049 nM | GI50 (BT-483, cell line BT483): 0.049 nM | GI50 (BT-549, cell line BT549, censored GI50 values): 46.8 nM | GI50 (BT-549, cell line BT549): 46.8 nM | GI50 (CAMA-1, cell line CAMA1, censored GI50 values): 31.6 nM | GI50 (CAMA-1, cell line CAMA1): 31.6 nM | GI50 (HCC38, cell line HCC38, censored GI50 values): 46.8 nM | GI50 (HCC38, cell line HCC38): 46.8 nM | GI50 (HCC70, cell line HCC70, censored GI50 values): 45.7 nM | GI50 (HCC70, cell line HCC70): 45.7 nM | GI50 (HCC202, cell line HCC202, censored GI50 values): 7.59 nM | GI50 (HCC202, cell line HCC202): 7.59 nM | GI50 (HCC1143, cell line HCC1143, censored GI50 values): 51.3 nM | GI50 (HCC1143, cell line HCC1143): 51.3 nM | GI50 (HCC1187, cell line HCC1187, censored GI50 values): 26.9 nM | GI50 (HCC1187, cell line HCC1187): 26.9 nM | GI50 (HCC1395, cell line HCC1395, censored GI50 values): 27.5 nM | GI50 (HCC1395, cell line HCC1395): 27.5 nM | GI50 (HCC1419, cell line HCC1419, censored GI50 values): 6760 nM | GI50 (HCC1419, cell line HCC1419): 6760 nM | GI50 (HCC1428, cell line HCC1428, censored GI50 values): 4470 nM | GI50 (HCC1428, cell line HCC1428): 4470 nM | GI50 (HCC1500, cell line HCC1500, censored GI50 values): 33.9 nM | GI50 (HCC1500, cell line HCC1500): 33.9 nM | GI50 (HCC1806, cell line HCC1806, censored GI50 values): 28.8 nM | GI50 (HCC1806, cell line HCC1806): 28.8 nM | GI50 (HCC1937, cell line HCC1937, censored GI50 values): 282 nM | GI50 (HCC1937, cell line HCC1937): 282 nM | GI50 (HCC1954, cell line HCC1954, censored GI50 values): 30.9 nM | GI50 (HCC1954, cell line HCC1954): 30.9 nM | GI50 (MCF7, cell line MCF7, censored GI50 values): 38 nM | GI50 (MCF7, cell line MCF7): 38 nM | GI50 (MDA-MB-134-VI, cell line MDAMB134VI, censored GI50 values): 43.7 nM | GI50 (MDA-MB-157, cell line MDAMB157, censored GI50 values): 31.6 nM | GI50 (MDA-MB-175-VII, cell line MDAMB175VII, censored GI50 values): 1700 nM | GI50 (MDA-MB-231, cell line MDAMB231, censored GI50 values): 31.6 nM | GI50 (MDA-MB-361, cell line MDAMB361, censored GI50 values): 33.9 nM | GI50 (MDA-MB-415, cell line MDAMB415, censored GI50 values): 75.9 nM | GI50 (MDA-MB-436, cell line MDAMB436, censored GI50 values): 38.9 nM | GI50 (MDA-MB-453, cell line MDAMB453, censored GI50 values): 42.7 nM | GI50 (MDA-MB-468, cell line MDAMB468, censored GI50 values): 19.1 nM | GI50 (SK-BR-3, cell line SKBR3, censored GI50 values): 33.9 nM | GI50 (SUM52PE, cell line SUM52PE, censored GI50 values): 28.8 nM | GI50 (SUM149PT, cell line SUM149PT, censored GI50 values): 33.1 nM | GI50 (SUM185PE, cell line SUM185PE, censored GI50 values): 110 nM | GI50 (SUM225CWN, cell line SUM225CWN, censored GI50 values): 105 nM | GI50 (SUM1315MO2, cell line SUM1315MO2, censored GI50 values): 40.7 nM | GI50 (SUM-159-PT, cell line SUM159PT, censored GI50 values): 47.9 nM | GI50 (T47D, cell line T47D, censored GI50 values): 83.2 nM | GI50 (UACC-893, cell line UACC893, censored GI50 values): 10.5 nM | GI50 (ZR-75-1, cell line ZR751, censored GI50 values): 89.1 nM | GI50 (ZR-75B, cell line ZR75B, censored GI50 values): 132 nM | GI50 (cell line 600MPE, censored GI50 values): 20.9 nM | GI50 (cell line 600MPE): 20.9 nM | GI50 (cell line HCC2185, censored GI50 values): 29.5 nM | GI50 (cell line HCC2185): 29.5 nM | GI50 (cell line HCC3153, censored GI50 values): 28.2 nM | GI50 (cell line HCC3153): 28.2 nM | GI50 (cell line LY2, censored GI50 values): 22.9 nM | GI50 (cell line LY2): 22.9 nM
